{
  "source": "paper PMC9820559",
  "about": "“Investigation of the Fuzzy Complex between RSV Nucleoprotein and Phosphoprotein to Optimize an Inhibition Assay by Fluorescence Polarization” (International Journal of Molecular Sciences, 2022)",
  "target": "T1, RSV N-RNA complex (Human respiratory syncytial virus A, UniProt P03418)",
  "T1 construct": "Full-length N was produced by co-expression with the C-terminal domain of RSV P protein in E. coli BL21(DE3); made in house; host or cells: E. coli BL21(DE3), co-transformed with pET-N and pGEX-P(161–241)",
  "experiment": "biochemical",
  "assay_type": "binding",
  "conditions": "for FP values compared to fluorescein at the same N-RNA concentrations: 200 nM probe, also bound to N-RNA",
  "description": "We carried out FP measurements using the fluorescent F11 peptide and N-RNA complex. […] No salt was added to promote high affinity.\nWe first measured binding of Fn peptides (200 nM) to N-RNA in Tris buffer by FP (Figure 5A,B). […] We fitted the data with ΔFPmax and Kd as parameters.\nWe therefore measured fluorescein FP in the presence of N-RNA. […] To test if fluorescein binds to the P-binding site on the N-RNA, we carried out a competition experiment with M76 (Figure 6C).\nWe first performed FP measurements in salt-free Tris pH 8 buffer (Figure 8A). We measured binding curves using 200 nM of fluorescent peptides.\nFluorescence polarization measurements were carried out on a Paradigm Detection Platform (Beckman Coulter, Brea, CA, USA) operating with a microplate reader, a fluorescein detection cartridge (excitation range 485/20 nm, emission range 535/25 nm for both parallel and perpendicular components) and the SpectraMax Pro 6.1 software (Molecular Devices, San Jose, CA, USA). Samples were placed in polystyrene black flat bottom 96-well microplates (Cellstar, Greiner bio-one, Frickenhausen, Germany) with 20 µL final volume in each well. If not stated otherwise, the final concentration of fluorescent ligands was 200 nM. The buffer was either 20 mM MES pH 6.5, salt-free or with 250 mM NaCl, or 20 mM Tris pH 8.0 salt-free or with 100 mM NaCl, supplemented with 0.01% Brij-35. Mixing was done using the corresponding plate reader option. The temperature was set to 20 °C. Data were recorded in top reading mode. Measurements were done in triplicate and after an incubation time of 30 min, if not indicated otherwise. Fluorescence polarization (FP) in mFP units was determined from the parallel (I∥) and perpendicular (I⊥) components of the emitted light according to Equation (4). A grating factor G of 1.2 was determined using 1 nM fluorescein in 1 mM NaOH and assuming a theoretical FP of 27 mFP [48]. Background signal was measured from wells containing only buffer, and the mean value was subtracted from each I∥ and I⊥ component. (4) FP (mP)=1000×(I∥−G∗I⊥)/(I∥+G×I⊥)\nWe assumed that the measured fluorescence polarization FP is a linear combination of the FP of the fluorescent probe in the absence of N protein (FPmin) and the FP of N-bound fluorescent probe (FPmax), weighted by the molar fraction. The molar fraction x = [P]bound/[P]0 can then be expressed as a ratio of FP differences (Equation (8)). (8) x=(FP−FPmin)/(FPmax−FPmin)=∆FP/∆FPmax\nTo determine the Kd value of a complex between a fluorescent probe and N protein, a series of samples with constant probe concentration and varying N concentration was measured. FP binding curves were fitted with a single binding site model and a 1:1 stoichiometry.",
  "key": {"[1]": {"conditions": "Kd, BCNn peptides 200 nM, Tris pH 8.0, no salt, single site model"}, "[2]": {"conditions": "apparent Kd, fluorescent molecules 200 nM, Tris pH 8 without salt, calculated assuming FPmax = 500 mFP"}, "[3]": {"conditions": "Kd, Fn peptides 200 nM, Tris pH 8.0 without salt, single site binding model"}, "[4]": {"conditions": "Kd, Fn peptides 200 nM, Tris pH 8.0 without salt, single site model combined with linear contribution (*)"}},
  "note": "Peptide text beside a SMILES is read from it. * marks the point of attachment. FITC = O=C1OC2(c3ccc(O)cc3Oc3cc(O)ccc32)c2ccc(NC(=S)*)cc21; X1 = Cc1cc(C)n2c1C=C1C=CC(CCC(=O)*)=[N+]1[B-]2(C#N)C#N",
  "data": [
    {"smiles": "Cc1cc(C)n2c1C=C1C=CC(CCC(=O)N[C@@H](CCC(=O)O)C(=O)N[C@@H](CC(=O)O)C(=O)N[C@@H](CC(N)=O)C(=O)N[C@@H](CC(=O)O)C(=O)N[C@@H](CC(C)C)C(=O)N[C@@H](CCC(=O)O)C(=O)N[C@@H](CC(C)C)C(=O)N[C@@H](CCC(=O)O)C(=O)N[C@@H](CC(=O)O)C(=O)N[C@@H](Cc3ccccc3)C(=O)O)=[N+]1[B-]2(C#N)C#N", "note": "[BCN10EE] (X1-EDNDLELEDF-OH)", "values": [
      {"measurement": "Kd", "setting": "[1]", "result": "160 ± 30", "unit": "nM"}
    ]},
    {"smiles": "Cc1cc(C)n2c1C=C1C=CC(CCC(=O)O)=[N+]1[B-]2(F)F", "note": "[4,4′ difluoro BODIPY FL 4, 4,4′ difluoro BODIPY FL]", "values": [
      {"measurement": "FP values compared to fluorescein at the same N-RNA concentrations", "setting": "Tris pH 8 without salt", "result": "markedly lower"},
      {"measurement": "Kd", "setting": "[2]", "result": "870000 ± 140000", "unit": "nM"}
    ]},
    {"smiles": "CC(C)C[C@H](NC(=O)[C@H](CCC(=O)O)NC(=O)[C@H](CC(C)C)NC(=O)[C@H](CC(=O)O)NC(=O)[C@H](CC(N)=O)NC(=O)[C@H](CC(=O)O)NC(=O)[C@H](CO)NC(=O)[C@H](CC(=O)O)NC(=S)Nc1ccc2c(c1)C(=O)OC21c2ccc(O)cc2Oc2cc(O)ccc21)C(=O)N[C@@H](CCC(=O)O)C(=O)N[C@@H](CC(=O)O)C(=O)N[C@@H](Cc1ccccc1)C(=O)O", "note": "[F11SE, ϕ-DS232DNDLE237LEDF-OH] ({FITC}-DSDNDLELEDF-OH)", "values": [
      {"measurement": "Kd", "setting": "[3]", "result": "< 1000", "unit": "nM"},
      {"measurement": "Kd", "setting": "[4]", "result": 620, "unit": "nM"}
    ]},
    {"smiles": "CC(C)C[C@H](NC(=S)Nc1ccc2c(c1)C(=O)OC21c2ccc(O)cc2Oc2cc(O)ccc21)C(=O)N[C@@H](CCC(=O)O)C(=O)N[C@@H](CC(=O)O)C(=O)N[C@@H](Cc1ccccc1)C(=O)O", "note": "[F4, ϕ-LEDF-OH] ({FITC}-LEDF-OH)", "values": [
      {"measurement": "Kd", "setting": "[3]", "result": "35000 ± 4000", "unit": "nM"}
    ]},
    {"smiles": "CCOC(=O)c1ccccc1-c1c2ccc(=O)cc-2oc2cc(O)ccc12", "note": "[Fluorescein ethyl ester 3, fluorescein ethyl ester]", "values": [
      {"measurement": "Kd", "setting": "[2]", "result": "250000 ± 27000", "unit": "nM"}
    ]},
    {"smiles": "O=C(O)CC[C@H](NC(=S)Nc1ccc2c(c1)C(=O)OC21c2ccc(O)cc2Oc2cc(O)ccc21)C(=O)N[C@@H](CC(=O)O)C(=O)N[C@@H](Cc1ccccc1)C(=O)O", "note": "[F3, ϕ-EDF-OH] ({FITC}-Glu-Asp-Phe-OH)", "values": [
      {"measurement": "Kd", "setting": "[3]", "result": "62000 ± 19000", "unit": "nM"}
    ]},
    {"smiles": "Cc1cc(C)n2c1C=C1C=CC(CCC(=O)N[C@@H](CC(=O)O)C(=O)N[C@@H](CC(C)C)C(=O)N[C@@H](CCC(=O)O)C(=O)N[C@@H](CC(C)C)C(=O)N[C@@H](CCC(=O)O)C(=O)N[C@@H](CC(=O)O)C(=O)N[C@@H](Cc3ccccc3)C(=O)O)=[N+]1[B-]2(C#N)C#N", "note": "[BCN7E, BCN-DLELEDF-OH] (X1-DLELEDF-OH)", "values": [
      {"measurement": "Kd", "setting": "[1]", "result": "2200 ± 200", "unit": "nM"}
    ]},
    {"smiles": "COC(=O)c1ccccc1-c1c2ccc(=O)cc-2oc2cc(O)ccc12", "note": "[Fluorescein methyl ester 2, fluorescein methyl ester]", "values": [
      {"measurement": "Kd", "setting": "[2]", "result": "200000 ± 8000", "unit": "nM"}
    ]},
    {"smiles": "CC(C)C[C@H](NC(=O)[C@H](CCC(=O)O)NC(=O)[C@H](CC(C)C)NC(=O)[C@H](CC(=O)O)NC(=O)[C@H](CC(N)=O)NC(=O)[C@H](CC(=O)O)NC(=O)[C@H](CCC(=O)O)NC(=O)[C@H](CC(=O)O)NC(=S)Nc1ccc2c(c1)C(=O)OC21c2ccc(O)cc2Oc2cc(O)ccc21)C(=O)N[C@@H](CCC(=O)O)C(=O)N[C@@H](CC(=O)O)C(=O)N[C@@H](Cc1ccccc1)C(=O)O", "note": "[F11EE, ϕ-DE232DNDLE237LEDF-OH] ({FITC}-DEDNDLELEDF-OH)", "values": [
      {"measurement": "ΔFPmax", "setting": "Fn peptides 200 nM, Tris pH 8.0 without salt, single site binding model", "result": "114 ± 6", "unit": "mFP"},
      {"measurement": "ΔFPmax", "setting": "Fn peptides 200 nM, Tris pH 8.0 without salt, single site model combined with linear contribution (*)", "result": "93 ±13", "unit": "mFP"},
      {"measurement": "Kd", "setting": "[4]", "result": 150, "unit": "nM"},
      {"measurement": "increase of affinity relative to F11 by phosphomimetic substitutions", "setting": "Tris pH 8.0 without salt", "result": 20, "unit": "fold"}
    ]},
    {"smiles": "CC(C)C[C@H](NC(=O)[C@H](CCC(=O)O)NC(=O)[C@H](CC(C)C)NC(=O)[C@H](CC(=O)O)NC(=S)Nc1ccc2c(c1)C(=O)OC21c2ccc(O)cc2Oc2cc(O)ccc21)C(=O)N[C@@H](CCC(=O)O)C(=O)N[C@@H](CC(=O)O)C(=O)N[C@@H](Cc1ccccc1)C(=O)O", "note": "[F7E, ϕ-DLE237LEDF-OH] ({FITC}-DLELEDF-OH)", "values": [
      {"measurement": "Kd", "setting": "[3]", "result": "2500 ± 300", "unit": "nM"}
    ]},
    {"smiles": "Cc1cc(C)n2c1C=C1C=CC(CCC(=O)N[C@@H](CCC(=O)O)C(=O)N[C@@H](CC(C)C)C(=O)N[C@@H](CCC(=O)O)C(=O)N[C@@H](CC(=O)O)C(=O)N[C@@H](Cc3ccccc3)C(=O)O)=[N+]1[B-]2(C#N)C#N", "note": "[BCN5E, BCN-ELEDF-OH] (X1-ELEDF-OH)", "values": [
      {"measurement": "Kd", "setting": "[1]", "result": "9800 ± 900", "unit": "nM"}
    ]},
    {"smiles": "O=C(O)c1ccccc1-c1c2ccc(=O)cc-2oc2cc(O)ccc12", "note": "[Fluorescein 1, Fluorescein]", "values": [
      {"measurement": "Kd", "setting": "[2]", "result": "91000 ± 5000", "unit": "nM"}
    ]},
    {"smiles": "Cc1cc(C)n2c1C=C1C=CC(CCC(=O)N[C@@H](CC(=O)O)C(=O)N[C@@H](CO)C(=O)N[C@@H](CC(=O)O)C(=O)N[C@@H](CC(N)=O)C(=O)N[C@@H](CC(=O)O)C(=O)N[C@@H](CC(C)C)C(=O)N[C@@H](CCC(=O)O)C(=O)N[C@@H](CC(C)C)C(=O)N[C@@H](CCC(=O)O)C(=O)N[C@@H](CC(=O)O)C(=O)N[C@@H](Cc3ccccc3)C(=O)O)=[N+]1[B-]2(C#N)C#N", "note": "[BCN11SE] (X1-DSDNDLELEDF-OH)", "values": [
      {"measurement": "Kd", "setting": "[1]", "result": 800, "unit": "nM"}
    ]},
    {"smiles": "Cc1cc(C)n2c1C=C1C=CC(CCC(=O)O)=[N+]1[B-]2(C#N)C#N", "note": "[dicyano BODIPY FL 5, 3-(5,5-dicyano-7,9-dimethyl-5H-4λ^4,5λ^4-dipyrrolo[1,2-c:2′,1′-f][1,3,2]diazaborinin-3-yl)propanoic acid]", "values": [
      {"measurement": "FP values compared to fluorescein at the same N-RNA concentrations", "setting": "Tris pH 8 without salt", "result": "markedly lower"}
    ]},
    {"smiles": "CC(C)C[C@H](NC(=O)[C@H](CCC(=O)O)NC(=O)[C@H](CC(C)C)NC(=O)[C@H](CC(=O)O)NC(=O)[C@H](CC(N)=O)NC(=O)[C@H](CC(=O)O)NC(=S)Nc1ccc2c(c1)C(=O)OC21c2ccc(O)cc2Oc2cc(O)ccc21)C(=O)N[C@@H](CCC(=O)O)C(=O)N[C@@H](CC(=O)O)C(=O)N[C@@H](Cc1ccccc1)C(=O)O", "note": "[F9E, ϕ-DNDLE237LEDF-OH] ({FITC}-DNDLELEDF-OH)", "values": [
      {"measurement": "Kd", "setting": "[3]", "result": "2200 ± 300", "unit": "nM"}
    ]},
    {"smiles": "Cc1cc(C)n2c1C=C1C=CC(CCC(=O)N[C@@H](CC(C)C)C(=O)N[C@@H](CCC(=O)O)C(=O)N[C@@H](CC(C)C)C(=O)N[C@@H](CCC(=O)O)C(=O)N[C@@H](CC(=O)O)C(=O)N[C@@H](Cc3ccccc3)C(=O)O)=[N+]1[B-]2(C#N)C#N", "note": "[BCN6E, BCN-LELEDF-OH] (X1-LELEDF-OH)", "values": [
      {"measurement": "Kd", "setting": "[1]", "result": "2300 ± 200", "unit": "nM"},
      {"measurement": "Kd", "setting": "Kd, BCNn peptides 200 nM, Tris pH 8.0, with salt (100 mM NaCl), (*) saturation not reached", "result": "12600 ± 1600", "unit": "nM"}
    ]}
  ]
}
